Data published in publication PMC6213900, “Design, Synthesis, and Cytotoxic Analysis of Novel Hederagenin–Pyrazine Derivatives Based on Partial Least Squares Discriminant Analysis” (International Journal of Molecular Sciences, 2018).

Legend:
[1] = tested on: A549 cells; experiment: DAPI staining, nuclear morphology; format: cell-based, human; settings: 6 μM, 72 h
Description: As pictured in Figure 6, in the control group, the nucleus was intact and evenly colored. […] When the concentration of the drug increased, nuclear condensation, nuclear fragmentation, and the formation of apoptotic bodies appeared.
A549 cells in the logarithmic growth phase were seeded in 12-well plates (1.2 × 10^4 cells/well). After incubation for 24 h at 37 °C with 5% CO2, various concentrations (0, 2, 4, or 6 μM) of compound 9 were added to the cultures, and the plate was incubated for further 72 h. Then, we discarded the cell culture fluid, washed twice with PBS, and fixed the cells with 4% paraformaldehyde for 10 min. After that, we added the appropriate amount of DAPI (1 mg/mL; Molecular Probes/Invitrogen Life Technologies, Carlsbad, CA, USA) to cover the bottom of the board, after staining for 5 min in the dark.

[2] = tested on: H9c2 (murine heart myoblast); experiment: MTT toxicity evaluation, H9c2; format: cell-based; settings: H9c2, 72 h treatment, non-tumor cells, read-out: Half Maximal Inhibitory Concentration (IC50) H9c2
Summary of the method: (§1)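 Cells seeded at 3 × 10^3/well in DMEM/10% FBS, then treated 72 h with 3.125–50 μM compound in DMSO. MTT (5 mg/mL) added for 4 h, formazan dissolved in DMSO, absorbance read at 490 nm; inhibition relative to untreated control, IC50 as 50% growth inhibition, triplicate runs.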

[3] = tested on: A549 (human non-small-cell lung cancer); experiment: MTT cytotoxicity assay, A549; format: cell-based; settings: Homo sapiens, A549, 72 h treatment, read-out: Half Maximal Inhibitory Concentration (IC50) A549
Summary of the method: as §1

[4] = tested on: HepG2 (human hepatocellular carcinoma); experiment: MTT cytotoxicity assay, HepG2; format: cell-based; settings: Homo sapiens, HepG2; MTT, 72 h treatment; read-out: Half Maximal Inhibitory Concentration (IC50) HepG2
Summary of the method: as §1

[5] = tested on: HepG2, A549, MCF-7, H9c2, and MDCK cells; experiment: MTT assay, panel of five cell lines (summary in discussion); format: cell-based; settings: read-out: IC50 values ranging (cell lines not specified)
Description: A series of different esters of He were designed and synthesized. All these compounds were screened for cytotoxic activity employing a panel of five cell lines, including HepG2, A549, MCF-7, H9c2, and MDCK cells, using the MTT assay. […] Further intensive modifications at C-23 and studies are currently being performed in our research group, and the results will be reported in due course.
The antitumor activity of these compounds were evaluated on MCF-7, A549, HepG2, MDCK, and H9c2 cell lines using the MTT assay. Cells at a density of 3 × 10^3 cells/well were plated in a 96-multiwell plate in DMEM containing 10% FBS for 24 h at 37 °C with 5% CO2. Then, cells were treated for 72 h with the required concentrations (3.125, 6.25, 12.5, 25, or 50 μM) of the compounds and reference drugs (He and DDP) dissolved with the vehicle DMSO. After that, the culture substrate was replaced with 200 μL of DMEM containing 20 μL of MTT solution at 5 mg/mL and incubated for 4 h. The supernatant was removed and the dissolved formazans precipitated with 120 μL of DMSO. Wells without drugs were used as blanks. A plate reader was used to determine the absorbance at 490 nm. The above steps were repeated three times. The IC50 values were defined as the concentration of the compound which gave 50% growth inhibition, and they were calculated using Graph Pad Prism 5. […]

[6] = tested on: MCF-7 (human mammary cancer); experiment: MTT cytotoxicity assay, MCF-7; format: cell-based; settings: Homo sapiens, MCF7, 72 h treatment, read-out: Half Maximal Inhibitory Concentration (IC50) MCF-7
Summary of the method: as §1

[7] = tested on: MDCK (Madin–Darby canine kidney) cells; experiment: MTT toxicity evaluation, MDCK; format: cell-based; settings: Canis lupus familiaris, MDCK, 72 h treatment, non-tumor cells, read-out: Half Maximal Inhibitory Concentration (IC50) MDCK
Summary of the method: as §1

Cc1cncc(C(=O)OCCOC(=O)[C@]23CCC(C)(C)CC2C2=CCC4[C@@]5(C)CC[C@H](O)[C@@](C)(CO)C5CC[C@@]4(C)[C@]2(C)CC3)n1 (stereo partly drawn) [Compound 9, 2-(((4aS,6aS,6bR,9R,10S,12aR)-10-Hydroxy-9-(hydroxymethyl)-2,2,6a,6b,9,12a-hexamethyl-1,2,3,4,4a,5,6,6a,6b,7,8,8a,9,10,11,12,12a,12b,13,14b-icosahydropicene-4a-carbonyl)oxy)ethyl-6-methylpyrazine-2-carboxylate]
nuclear morphology, DAPI staining [1]: the number of cells decreased drastically, the shape of the cells became irregular, and nuclear fragmentation occurred | IC50 [2]: 16.69 ± 0.12 µM | IC50 [3]: 3.45 ± 0.59 µM | IC50 [4]: 8.71 ± 0.38 µM | IC50 [5]: 3.22 to 4.48 µM | IC50 [6]: 8.73 ± 1.49 µM | IC50 [7]: 14.11 ± 0.04 µM
